Reference: PubChem BioAssay AID328 (DTP/NCI, 2004)
Toxic doses and inconclusive results are not listed. How the source made its calls: active means survival T/C of 150% or more; inactive means T/C below 125% in these data.

Tested on: BDF1 mice, P388 leukemia ip, median survival T/C
Assay: NCI In Vivo Anticancer Drug Screen. Data for tumor model P388 Leukemia (intraperitoneal) in B6D2F1 (BDF1) mice
Settings: endpoint: median survival time, higher = longer survival
How it was run: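 Reported as T/C, where T is the survival measurement in dosed animals and C the same measurement in vehicle controls.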

[1] = dose: 1.5 mg/kg/injection, schedule: Q01DX009 (ip), vehicle: saline with Tween-80
[2] = dose: 100.0 mg/kg/injection, schedule: Q01DX009 (ip), vehicle: saline
[3] = dose: 200.0 mg/kg/injection, schedule: Q01DX009 (ip), vehicle: saline

Measured: T/C

Cc1ccc(C)c2c1CCC2C (centres undefined)
inactive: dose: 100.0 mg/kg/injection, schedule: Q01DX009 (ip), vehicle: saline with Tween-80 123 % of control | dose: 200.0 mg/kg/injection, schedule: Q01DX009 (ip), vehicle: saline with Tween-80 96 % of control

O=C1C(=O)c2ccccc2-c2ccccc21.O=C1C(=O)c2ccccc2-c2ccccc21.[Hg]
inactive: [1] 110 % of control | dose: 2.6 mg/kg/injection, schedule: Q01DX009 (ip), vehicle: saline with Tween-80 100 % of control | dose: 3.0 mg/kg/injection, schedule: Q01DX009 (ip), vehicle: saline with Tween-80 112 % of control | dose: 4.0 mg/kg/injection, schedule: Q01DX009 (ip), vehicle: saline with Tween-80 110 % of control | dose: 6.0 mg/kg/injection, schedule: Q01DX009 (ip), vehicle: saline with Tween-80 116 % of control | dose: 9.0 mg/kg/injection, schedule: Q01DX009 (ip), vehicle: saline with Tween-80 110 % of control

CCN(CC)Cc1c(O)ccc2c3c(c(=O)oc12)CCCC3
inactive: dose: 1.0 mg/kg/injection, schedule: Q01DX005 (ip), vehicle: saline 112 % of control | dose: 2.0 mg/kg/injection, schedule: Q01DX005 (ip), vehicle: saline 106 % of control | dose: 4.0 mg/kg/injection, schedule: Q01DX005 (ip), vehicle: saline 112 % of control | dose: 8.0 mg/kg/injection, schedule: Q01DX005 (ip), vehicle: saline 104 % of control | dose: 16.0 mg/kg/injection, schedule: Q01DX005 (ip), vehicle: saline 98 % of control | dose: 32.0 mg/kg/injection, schedule: Q01DX005 (ip), vehicle: saline 102 % of control | dose: 64.0 mg/kg/injection, schedule: Q01DX005 (ip), vehicle: saline 96 % of control

CC1(C)N=C(N)N=C(N)N1c1ccc(CCCCc2ccc(Cl)cc2Cl)cc1
inactive: dose: 4.0 mg/kg/injection, schedule: Q01DX009 (ip), vehicle: saline 118 % of control | dose: 25.0 mg/kg/injection, schedule: Q01DX002 (ip), vehicle: saline 91 % of control | dose: 50.0 mg/kg/injection, schedule: Q01DX002 (ip), vehicle: saline 103 % of control

CS(=O)(=O)C(F)(F)C(F)(F)C(F)(F)C(F)(F)F
inactive: dose: 50.0 mg/kg/injection, schedule: Q01DX009 (ip), vehicle: saline 101 % of control | [2] 101 % of control | [3] 106 % of control

COCCCN=C(N)c1ccc(NC(=O)c2ccc(C(=O)Nc3ccc(C(N)=NCCCOC)cc3)cc2)cc1
inactive: dose: 0.22 mg/kg/injection, schedule: Q01DX009 (ip), vehicle: saline with Tween-80 120 % of control | dose: 0.5 mg/kg/injection, schedule: Q01DX009 (ip), vehicle: saline with Tween-80 116 % of control | dose: 1.78 mg/kg/injection, schedule: Q04DX003 (ip), vehicle: saline with Tween-80 118 % of control | dose: 4.0 mg/kg/injection, schedule: Q04DX003 (ip), vehicle: saline with Tween-80 122 % of control | dose: 7.5 mg/kg/injection, schedule: Q01DX009 (ip), vehicle: saline with Tween-80 113 % of control | dose: 15.0 mg/kg/injection, schedule: Q01DX009 (ip), vehicle: saline with Tween-80 90 % of control
active: dose: 0.66 mg/kg/injection, schedule: Q01DX009 (ip), vehicle: saline with Tween-80 150 % of control | dose: 1.0 mg/kg/injection, schedule: Q01DX009 (ip), vehicle: saline with Tween-80 156 % of control | [1] 176 % of control | dose: 2.25 mg/kg/injection, schedule: Q01DX009 (ip), vehicle: saline with Tween-80 194 % of control | dose: 3.75 mg/kg/injection, schedule: Q01DX009 (ip), vehicle: saline with Tween-80 231 % of control | dose: 15.0 mg/kg/injection, schedule: Q04DX003 (ip), vehicle: saline with Tween-80 159 % of control

C=CCOc1c(C)cc(C(C)(C)c2cc(C)c(OCC=C)c(C)c2)cc1C
inactive: dose: 25.0 mg/kg/injection, schedule: Q01DX001 (ip), vehicle: other 104 % of control | dose: 50.0 mg/kg/injection, schedule: Q01DX001 (ip), vehicle: other 109 % of control | dose: 100.0 mg/kg/injection, schedule: Q01DX001 (ip), vehicle: other 95 % of control

CC(O)C(O)C(O)C(/C=N\NC(N)=S)=N/NC(N)=S (centres undefined)
inactive: [2] 92 % of control | [3] 100 % of control | dose: 400.0 mg/kg/injection, schedule: Q01DX009 (ip), vehicle: saline 88 % of control
